Results: patent US20240315992A1, “AMINOXY ACID-BASED ANTIBACTERIAL COMPOUNDS AND METHODS THEREOF” (The University of Hong Kong, priority 2023, published 2024)

Tests used:
[1] = tested on: Staphylococcus aureus ATCC 29213 cytoplasm pH; experiment: Cytoplasmic pH measurement with pHluorin; type: cell-based; conditions: pHluorin fluorescence ratio, 5 minutes incubation
Description: Cytoplasm pH was monitored by pH sensitive fluorescent protein over time (s). 2 μM nigericin (Nig) and 2 μM valinomycin (Val) were used as positive control and 1% DMSO was used as negative control. Data represented the mean±S.D. of biological triplicates. Statistical analysis was performed by one-way ANOVA with Dunnett's post-test to calculate p-values adjusted for multiple comparisons with DMSO negative control (*p<0.05; **p<0.01; ***p<0.001).
To construct pHluorinsarA plasmid, pGLsarA plasmid vector was PCR amplified using primers pGL-f (CTGCAGGCATGCAAG; SEQ ID NO: 1) and pGL-r ([…]: SEQ ID NO: 2). […]
A pHlourin standard curve correlating pH and fluorescence ratio was constructed. Briefly, the emission at 510 nm was monitored with excitation wavelengths at 410 nm and 470 nm simultaneously following previously described protocol^18 Overnight culture Staphylococcus aureus ATCC 29213 was sub-cultured 1:100 in fresh CAMH medium and regrown to exponential phase. […] Fluorescence ratio (Excitation wavelength 410 nm/470 nm; emission wavelength 510 nm) was then measured in 1 mL cuvette using Hitachi F-4500 Florescence Spectrometer and plotted against the pH of the buffer. […]

[2] = tested on: MRSA Mu3 cell membrane potential; experiment: Membrane potential monitored by DiSC3(5); type: cell-based, Staphylococcus aureus
Description: FIG. 11 is a line graph showing compound 8 can depolarize Staphylococcus aureus cell membrane under sub-inhibitory concentration and hyperpolarize Staphylococcus aureus cell membrane under inhibitory concentration. Membrane potential was monitored by DiSc3(5) over time (s). Extracellular buffer contained 10 mM HEPEs buffer, 5 mM glucose and 100 mM NaCl, pH 7.1. At t=100 s, 6 μL different concentration of compound 8 and 10 mM valinomycin (Vln) were added to 594 μL MRSA Mu3 pre-incubated with 0.4 μM DiSC3(5). The fluorescence signal was further monitored for 500 s. Data represented the mean±S.D. of technical triplicates.
Typically, an overnight culture of MRSA Mu3 was sub-cultured 1:100 in fresh CAMH and regrown to exponential phase. The bacteria were harvested (3,000×g, 5 min), washed, and re-suspended in a solution with 10 mM HEPEs buffer, 5 mM glucose and 100 mM KCl or 100 mM NaCl (pH 7.2). The bacteria were diluted to OD595 0.3 with the same buffer. […] Bacteria were incubated in darkness for 20 minutes or until fluorescence signal become stable. Fluorescence signal was recorded using Hitachi F-4500 Florescence Spectrometer. In a 1 mL cuvette, 594 μL bacteria incubated with DiSC3(5) were added and the fluorescence was monitored for 100 s. […] The fluorescence was monitored for further 500 s. […]

[3] = tested on: Staphylococcus aureus Mu3 cytoplasmic calcium; experiment: Calcium influx monitored by Fluo-4-AM; type: cell-based; conditions: Fluo-4-AM fluorescence
Description: FIG. 12 is a line graph showing compound 8 can induce calcium influx into cytoplasm. The fluorescence of the Fluo-4-AM loaded in Staphylococcus aureus Mu3 was monitored for 10 minutes. The average of fluorescence in this period was assigned as F0. At t=10 minutes, different concentration of compound 8 was added to bacteria medium and then the fluorescence was further monitored for 40 minutes. Calcium ion transporter ionomycin was used as the positive control. The fluorescence Ft was normalized to initial fluorescence F0. Data represented the mean of biological triplicates.
Briefly, an overnight culture of MRSA Mu3 was sub-cultured 1:100 in fresh CAMH and regrown to exponential phase. The bacteria were washed twice and then re-suspended in PBS (OD595=0.5) containing 5 μM Fluo-4-AM. The bacteria were further incubated at 37° C. in dark for 2 hours before they were washed twice and resuspended into PBS containing 0.5 mM calcium chloride. 200 μL bacteria culture were then added into 96-well plate for each well. The plate was then pre-warmed and the fluorescence was monitored for 10 minutes for background measurement (excitation wavelength: 485 nm, emission wavelength: 535 nm). Fluorescence signal was recorded by Beckman Coulter DTX 880 Multimode Detector. Compounds were then added to 96-well plate and the fluorescence was further monitored for 5 minutes. […]

CC(C)C[C@H](ONC(=O)[C@@H](COCc1ccccc1)ONC(=O)c1cc(C(F)(F)F)cc(C(F)(F)F)c1)C(=O)Nc1ccccc1 [Compound 8]
cytoplasm pH [1]: can acidify Staphylococcus aureus cytoplasm
cell membrane potential under inhibitory concentration ([2]; inhibitory concentration): hyperpolarize
cell membrane potential under sub-inhibitory concentration ([2]; sub-inhibitory concentration): depolarize
calcium influx into cytoplasm [3]: can induce calcium influx into cytoplasm in concentration dependent manner
